Our source for the IC50 values is ChEMBL document CHEMBL3727358, “Inhibitors of inducible form of 6-phosphofructose-2-kinase” (2014).

For assay [1], the target named is T1, 6-phosphofructo-2-kinase/fructose-2,6-bisphosphatase 3 (Homo sapiens, UniProt Q16875). Briefly: Inhibition of iPFK2 (unknown origin) assessed as reduction in enzyme-mediated fructose-6-phosphate phosphorylation by measuring NADH absorbance pre-incubated for 10 mins before ATP/substrate addition followed by incubation for 1 hr by UV-Visible spectrometry based iPFK-2/PPI-PFK coupled enzyme assay.

Assay [2] deals with T1, 6-phosphofructo-2-kinase/fructose-2,6-bisphosphatase 3. Briefly: Inhibition of iPFK2 (unknown origin) assessed as reduction in enzyme-mediated fructose-6-phosphate phosphorylation by measuring ATP consumption incubated for 3 hrs by luciferase-luciferin-coupled chemiluminescence assay.

T1 sequence (Q16875 whole entry): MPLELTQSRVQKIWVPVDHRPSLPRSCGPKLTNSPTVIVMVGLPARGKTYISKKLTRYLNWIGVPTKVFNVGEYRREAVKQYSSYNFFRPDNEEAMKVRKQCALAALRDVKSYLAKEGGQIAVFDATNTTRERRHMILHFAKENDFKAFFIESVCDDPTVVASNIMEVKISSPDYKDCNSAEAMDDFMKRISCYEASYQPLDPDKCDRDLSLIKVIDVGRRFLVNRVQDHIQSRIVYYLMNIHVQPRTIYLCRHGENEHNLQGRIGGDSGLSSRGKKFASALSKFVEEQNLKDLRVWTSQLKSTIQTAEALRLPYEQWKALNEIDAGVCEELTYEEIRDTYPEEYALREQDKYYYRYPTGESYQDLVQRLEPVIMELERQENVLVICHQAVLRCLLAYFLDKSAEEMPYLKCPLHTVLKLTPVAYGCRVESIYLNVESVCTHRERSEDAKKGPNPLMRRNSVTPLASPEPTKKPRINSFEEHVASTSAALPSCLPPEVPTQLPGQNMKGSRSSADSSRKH

The IC50 is the concentration at which inhibition is half-maximal. As to `Cc1nc(NC(C)c2cccc(OCC#N)c2)cc(-c2ccc3ncsc3c2)n1` (centres undefined), the IC50 in assay [1] was 0.5 µM.

For the compound `Cc1nc(NCC2CCCN(C(=O)C3CCC3)C2)cc(-c2ccc3ncsc3c2)n1` (centres undefined), in assay [1], the IC50 was over 1 µM.

Regarding `COc1cccc([C@H](C)Nc2cc(-c3ccc4c(c3)CCO4)nc(C)n2)c1`, the IC50 in assay [2] and in assay [1] was 0.5 µM in each case.

Regarding `CCN(C)C(=O)COc1cccc(C(C)Nc2cc(-c3ccc4ncsc4c3)nc(C)n2)c1` (centres undefined), in assay [1], the concentration for half-maximal inhibition (IC50) is 0.5 µM.

Take `Cc1nc(NC(C)c2cccc(NC(=O)c3ccn[nH]3)c2)cc(-c2ccc3ncsc3c2)n1` (centres undefined): the IC50 is over 1 µM in assay [2] and 0.5 µM in assay [1].

As to `Cc1cc(-c2cc(N[C@@H]3CCCc4ccccc43)nc(C)n2)ccn1`, the IC50 in assay [2] and in assay [1] was over 1 µM throughout.

Regarding `Cc1nc(N[C@@H]2CCCc3ccccc32)cc(-c2ccc(Cl)c(COC(C)C(=O)O)c2)n1` (some centres undefined), in assay [1], the IC50 is 0.5 µM.

As to `Cc1nc(NC(C)c2cccc(OCCN(C)C)c2)cc(-c2ccc3ncsc3c2)n1` (centres undefined), the IC50 in assay [1] is 0.5 µM.

Turning to `COc1cccc([C@H](C)Nc2cc(-c3ccc(C)c(N)c3)nc(C)n2)c1`, the IC50 in assay [1] is over 1 µM.

`Cc1nc(N[C@@H]2CCCc3ccccc32)cc(-c2ccc3nonc3c2)n1`: the IC50 in assay [1] is over 1 µM.

`Cc1nc(N[C@@H]2CCCc3ccccc32)cc(-c2ccc3ncccc3c2)n1`: the IC50 in assay [1] is over 1 µM.

`COCCNS(=O)(=O)c1cccc(C(C)Nc2cc(-c3ccc4ncsc4c3)nc(C)n2)c1` (centres undefined): the IC50 in assay [2] and in assay [1] was over 1 µM in each case.

With `Cc1nc(NC(C)c2cccc(NC(=O)NC(N)=O)c2)cc(-c2ccc3ncsc3c2)n1` (centres undefined), the IC50 in assay [2] is over 1 µM; in assay [1], 0.5 µM.

Regarding `COc1cccc([C@H](C)Nc2cc(-c3cc4ccccc4n3C)nc(C)n2)c1`, the IC50 in assay [2] and in assay [1] was 0.5 µM in each case.

Regarding `Cc1nc(NC(C)c2cccc(OCCN(C)C)c2)cc(-c2ccc3occ(C)c3c2)n1` (centres undefined), the IC50 in assay [1] was over 1 µM.

For the compound `Cc1nc(NCC2CCCN(C(=O)CN(C)C(=O)c3ccccc3)C2)cc(-c2ccc3ncsc3c2)n1` (centres undefined), the IC50 in assay [1] is over 1 µM.

Regarding `Cc1nc(NC(C)c2cccc(OCC(=O)N3CCC3)c2)cc(-c2ccc3ncsc3c2)n1` (centres undefined), the IC50 in assay [1] was over 1 µM.

For the compound `CCN(CC)C(=O)COc1cccc(C(C)Nc2cc(-c3ccc4c(c3)N(C)CCO4)nc(C)n2)c1` (centres undefined), the IC50 in assay [1] is over 1 µM.

Consider `Cc1nc(NC(C)c2cccc(S(N)(=O)=O)c2)cc(-c2ccc3ncsc3c2)n1` (centres undefined), for which the IC50 in assay [1] turned out to be 0.5 µM.

As to `Cc1nc(N[C@@H](C)c2cccc(/C=C/C(=O)NC(C)(C)C)c2)cc(-c2ccc3ncsc3c2)n1`, the IC50 in assay [1] was 0.5 µM.

Take `Cc1nc(NC(C)c2cccc(NS(=O)(=O)c3cn(C)cn3)c2)cc(-c2ccc3ncsc3c2)n1` (centres undefined): the IC50 in assay [2] and in assay [1] was over 1 µM each time.

For `Cc1nc(NC(C)c2ccc(F)c(-c3cnn(C)c3)c2)cc(-c2ccc3ncsc3c2)n1` (centres undefined), the IC50 in assay [2] was over 1 µM; in assay [1], 0.5 µM.

As to `Cc1nc(NC(C)c2cccc(OCC(=O)N3CCCC3)c2)cc(-c2ccc3ncsc3c2)n1` (centres undefined), in assay [1], the IC50 was over 1 µM.

For `Cc1nc(NC(C)c2cccc(-c3nn[nH]n3)c2)cc(-c2ccc3ncsc3c2)n1` (centres undefined), in assay [1], the IC50 was over 1 µM.

With `Cc1nc(NC(C)c2cccc(OCc3cc(C)on3)c2)cc(-c2ccc3ncsc3c2)n1` (centres undefined), the IC50 in assay [2] and in assay [1] was 0.5 µM each time.

As to `Cc1nc(NC(C)c2cccc(-c3ccnc(N)n3)c2)cc(-c2ccc3ncsc3c2)n1` (centres undefined), the IC50 in assay [1] was over 1 µM.

In the case of `Cc1nc(N[C@@H]2CCCc3ccccc32)cc(-c2ccc3nccnc3c2)n1`, the IC50 in assay [1] is over 1 µM.

As to `COc1cccc(-c2cc(N[C@@H]3CCCc4ccccc43)nc(C)n2)c1F`, the results for the half-maximal inhibitory concentration (IC50) in assay [2] and in assay [1] were over 1 µM and 0.5 µM, respectively.

For the compound `COCCNC(=O)COc1cccc(C(C)Nc2cc(-c3ccc4ncsc4c3)nc(C)n2)c1` (centres undefined), the IC50 in assay [1] was found to be 0.5 µM.

With `Cc1nc(N[C@@H](C)c2cccc(-c3cnc(N4CCCCC4)nc3)c2)cc(-c2ccc3ncsc3c2)n1`, the IC50 in assay [1] was 0.5 µM.

Turning to `Cc1nc(NC(C)c2cccc(-c3cnn(C)c3)c2)cc(-c2ccc(F)c(Cl)c2)n1` (centres undefined), the IC50 in assay [1] is over 1 µM.

Take `COc1cccc(Oc2cc(N[C@@H]3CCCc4ccccc43)nc(C)n2)c1`: the IC50 in assay [1] was over 1 µM.

As to `Cc1nc(NC(C)c2cccc(-c3ccc(F)nc3C)c2)cc(-c2ccc3ncsc3c2)n1` (centres undefined), the IC50 in assay [2] stood at 0.5 µM.

On to `COc1ccc(-c2cc(NC(C)c3cccc(-c4cnn(C)c4)c3)nc(C)n2)cc1` (centres undefined), for which the IC50 in assay [2] and in assay [1] was 0.5 µM each time.

Turning to `Cc1nc(N[C@@H]2CCCc3ccccc32)cc(-c2ccc3c(c2)C(=O)C=CC3)n1`, in assay [1], the IC50 worked out at 0.5 µM.

With `Cc1nc(NC(C)c2cccc(-c3cnn(CC(=O)O)c3)c2)cc(-c2ccc3ncsc3c2)n1` (centres undefined), the IC50 in assay [1] was 0.5 µM.

As to `Cc1nc(NC(C)c2cccc(OC(C)C(N)=O)c2)cc(-c2ccc3ncsc3c2)n1` (centres undefined), the IC50 in assay [2] is over 1 µM; in assay [1] it was 0.5 µM.

On to `Cc1nc(NC(C)c2cccc(NC(=O)CN(C)C(=O)OC(C)(C)C)c2)cc(-c2ccc3ncsc3c2)n1` (centres undefined), for which the IC50 in assay [1] was over 1 µM.

In the case of `Cc1nc(NCC2CCCN(C(=O)C3CCCCC3)C2)cc(-c2ccc3ncsc3c2)n1` (centres undefined), the IC50 in assay [1] is over 1 µM.

With `Cc1nc(NC(C)c2cccc(NC=O)c2)cc(-c2ccc3ncsc3c2)n1` (centres undefined), the half-inhibitory concentration (IC50) in assay [2] and in assay [1] was over 1 µM in each case.

For the compound `Cc1nc(NC(C)c2cccc(-c3cnn(C)c3)c2)cc(-c2cc(F)c(F)c(F)c2)n1` (centres undefined), the IC50 in assay [1] was 0.5 µM.

Take `Cc1nc(NC(C)c2cc(O)ccc2F)cc(-c2ccc3ncsc3c2)n1` (centres undefined): in assay [1], the IC50 was over 1 µM.

`Cc1nc(NC(C)c2cccc(-c3cnn(C)c3)c2)cc(-c2ccc3ccccc3c2)n1` (centres undefined): the IC50 in assay [1] is over 1 µM.

For `Cc1nc(NC(C)c2cccc(OCC(N)=O)c2)cc(-c2cc3ccccc3n2C)n1` (centres undefined), in assay [1], the IC50 came out at 0.5 µM.

As to `Cc1nc(NCc2cc(OCC(=O)N3CCOCC3)ccc2F)cc(-c2ccc3ncsc3c2)n1`, the IC50 in assay [1] was over 1 µM.

In the case of `Cc1nc(NC(C)c2cccc(NC(N)=O)c2)cc(-c2ccc3ncsc3c2)n1` (centres undefined), the IC50 in assay [2] and in assay [1] was over 1 µM each time.

Regarding `Cc1nc(N[C@H](C)c2cccc(-c3cnn(C)c3)c2)cc(-c2cccc(F)c2)n1`, the IC50 in assay [1] is over 1 µM.

Regarding `Cc1nc(NC(C)c2cccc(-c3cnn(C)c3)c2)cc(-c2ccc(Cl)cc2Cl)n1` (centres undefined), the IC50 in assay [2] and in assay [1] was 0.5 µM throughout.

Regarding `COc1cccc([C@H](C)Nc2cc(-c3ccc4ncccc4c3)nc(C)n2)c1`, in assay [1], the IC50 is over 1 µM.

With `Cc1nc(NC(C)c2cccc(S(=O)(=O)NCCO)c2)cc(-c2ccc3ncsc3c2)n1` (centres undefined), the IC50 in assay [2] is 0.5 µM; in assay [1], over 1 µM.

For `Cc1nc(NC(C)c2cccc(-c3cnn(C)c3)c2)cc(-c2ccccc2C)n1` (centres undefined), the IC50 in assay [2] and in assay [1] was over 1 µM in each case.

On to `Cc1nc(NCC2CCCN(C(=O)c3ccc[nH]3)C2)cc(-c2ccc3ncsc3c2)n1` (centres undefined), for which the IC50 in assay [1] was over 1 µM.

For the compound `CC(=O)N1CCN(CCOc2cccc(C(C)Nc3cc(-c4ccc5ncsc5c4)nc(C)n3)c2)CC1` (centres undefined), in assay [1], the IC50 came out at 0.5 µM.

As for `Cc1nc(NC(C)c2cccc(OCC(=O)N3CC3C)c2)cc(-c2ccc3ncsc3c2)n1` (centres undefined), in assay [1], the IC50 turned out to be 0.5 µM.

Regarding `Cc1nc(N[C@@H]2CCCc3ccccc32)cc(-c2ccc(C)c(O)c2)n1`, the IC50 in assay [2] and in assay [1] was 0.5 µM each time.

Turning to `Cc1nc(NC(C)c2cccc(-c3cnn(C)c3)c2)cc(-c2ccc3c(c2)CCO3)n1` (centres undefined), the IC50 in assay [2] amounted to 0.5 µM.

In the case of `Cc1nc(N[C@H](C)c2ccnc(-c3cnn(C)c3)c2)cc(-c2ccc3occ(C)c3c2)n1`, in assay [1], the IC50 is over 1 µM.

As to `Cc1nc(NC(C)c2cccc(OCC(=O)N(C)C)c2)cc(-c2ccc3ncsc3c2)n1` (centres undefined), the IC50 in assay [1] was 0.5 µM.

Regarding `Cc1nc(NC(C)c2cccc(OCC[C@H](O)c3ccccc3)c2)cc(-c2ccc3ncsc3c2)n1` (some centres undefined), the IC50 in assay [1] is over 1 µM.

`Cc1cc(COc2ccc(F)c(C(C)Nc3cc(-c4ccc5ncsc5c4)nc(C)n3)c2)n(C)n1` (centres undefined): the half-maximal inhibitory concentration (IC50) in assay [2] and in assay [1] was over 1 µM in each case.

For `Cc1nc(NCc2cc(OCC(=O)N(C)C)ccc2F)cc(-c2ccc3ncsc3c2)n1`, the IC50 in assay [1] is 0.5 µM.

With `Cc1cc(COc2cccc([C@@H](C)Nc3cc(-c4ccc5ncsc5c4)nc(C)n3)c2)n(C)n1`, the IC50 in assay [1] is over 1 µM.

Take `Cc1nc(NC(C)c2cccc(-c3cnn(C)c3)c2)cc(-c2ccc(F)c(F)c2)n1` (centres undefined): the concentration for half-maximal inhibition (IC50) in assay [1] was found to be 0.5 µM.

As to `CCN(CC)c1ncc(-c2cccc([C@H](C)Nc3cc(-c4ccc5ncsc5c4)nc(C)n3)c2)cn1`, the IC50 in assay [1] was 0.5 µM.

For `Cc1nc(NC(C)c2cccc(NC(=O)c3ccn(C)n3)c2)cc(-c2ccc3ncsc3c2)n1` (centres undefined), the IC50 was over 1 µM in assay [2] and 0.5 µM in assay [1].

For `Cc1nc(NC(C)c2cccc(OCC(=O)NC3CC3)c2)cc(-c2ccc3ncsc3c2)n1` (centres undefined), in assay [1], the IC50 amounted to 0.5 µM.

Turning to `Cc1nc(NC(C)c2cccc(OCCCN3CCCC3)c2)cc(-c2ccc3ncsc3c2)n1` (centres undefined), the IC50 in assay [1] was determined as 0.5 µM.

For `CCN(CC)C(=O)COc1cccc(C(C)Nc2cc(-c3ccc4ccccc4c3)nc(C)n2)c1` (centres undefined), in assay [1], the IC50 came out at 0.5 µM.

In the case of `Cc1nc(NC(C)c2cccc(OCC(=O)N3CCCCC3)c2)cc(-c2ccc3ncsc3c2)n1` (centres undefined), the IC50 in assay [1] is 0.5 µM.

Regarding `COc1cc(-c2cc(NC(C)c3cccc(O)c3)nc(C)n2)ccc1C` (centres undefined), the IC50 in assay [2] is over 1 µM; in assay [1], 0.5 µM.

On to `Cc1nc(NC(C)c2cccc(/C(N)=N/O)c2)cc(-c2ccc3ncsc3c2)n1` (centres undefined), for which the IC50 in assay [1] was over 1 µM.

Regarding `Cc1nc(NC(C)c2cccc(OCC(=O)NCC(C)O)c2)cc(-c2ccc3ncsc3c2)n1` (centres undefined), the figures for the IC50 in assay [2] and in assay [1] were 0.5 µM and over 1 µM, respectively.

For the compound `Cc1nc(NC(C)c2cccc(-c3cnn(C)c3)c2)cc(-c2cccc(N(C)C)c2)n1` (centres undefined), in assay [1], the IC50 is over 1 µM.

For `COc1cc(C(C)Nc2cc(-c3ccc4ncsc4c3)nc(C)n2)ccn1` (centres undefined), the IC50 in assay [1] was found to be 0.5 µM.

On to `Cc1nc(NC(C)c2cccc(OCC(=O)O)c2)cc(-c2ccc3ncsc3c2)n1` (centres undefined), for which the IC50 in assay [1] is over 1 µM.

For the compound `Cc1nc(N[C@H](C)c2cccc(-c3cnn(C)c3)c2)cc(-c2ccc3ncsc3c2)n1`, in assay [1], the IC50 is over 1 µM.

On to `COc1ccc(-c2cc(NC(C)c3cccc(-c4cnn(C)c4)c3)nc(C)n2)c(F)c1` (centres undefined), for which the IC50 in assay [1] is over 1 µM.
